A value given as a limit tells only on which side of the number the result lay.

Usually IC50 stands for the concentration needed to halve the response being measured.

In assay [1] the target is recombinant poly(ADP-ribose) polymerase 1 (PARP1) (Homo sapiens, UniProt P09874). The assay is described as follows: biochemical. To be noted: inhibition of PARP1 enzyme activity, chemiluminescence.
A further assay deals with MDA-MB-436 cells. The assay is described as follows: Growth inhibition assay against BRCA mutant human breast cancer MDA-MB-436 cell line (CCK-8, 7 days). It is filed as cell-based.
For assay [2], the target named is recombinant poly(ADP-ribose) polymerase 2 (PARP2) (Homo sapiens, UniProt Q9UGN5). Nature of the assay: biochemical. To be noted: inhibition of PARP2 enzyme activity, chemiluminescence.
Chain of recombinant poly(ADP-ribose) polymerase 2 (PARP2) (Q9UGN5 whole entry): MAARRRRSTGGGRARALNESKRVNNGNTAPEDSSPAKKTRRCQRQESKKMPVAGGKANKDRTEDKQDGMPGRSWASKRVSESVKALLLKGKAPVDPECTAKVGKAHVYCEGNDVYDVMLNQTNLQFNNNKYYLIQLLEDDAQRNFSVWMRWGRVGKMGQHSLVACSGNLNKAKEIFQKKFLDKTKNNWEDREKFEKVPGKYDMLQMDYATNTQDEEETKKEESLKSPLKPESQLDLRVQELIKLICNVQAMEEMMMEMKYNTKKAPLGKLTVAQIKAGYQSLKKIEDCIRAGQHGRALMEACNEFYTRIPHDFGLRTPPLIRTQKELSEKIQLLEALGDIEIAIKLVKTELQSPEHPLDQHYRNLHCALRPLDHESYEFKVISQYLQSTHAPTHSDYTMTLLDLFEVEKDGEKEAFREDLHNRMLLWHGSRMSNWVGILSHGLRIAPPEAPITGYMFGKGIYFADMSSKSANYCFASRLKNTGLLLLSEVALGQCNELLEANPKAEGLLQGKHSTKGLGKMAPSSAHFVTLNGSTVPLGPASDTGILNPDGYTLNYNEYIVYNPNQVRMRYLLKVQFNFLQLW

Chain of recombinant poly(ADP-ribose) polymerase 1 (PARP1) (P09874 whole entry): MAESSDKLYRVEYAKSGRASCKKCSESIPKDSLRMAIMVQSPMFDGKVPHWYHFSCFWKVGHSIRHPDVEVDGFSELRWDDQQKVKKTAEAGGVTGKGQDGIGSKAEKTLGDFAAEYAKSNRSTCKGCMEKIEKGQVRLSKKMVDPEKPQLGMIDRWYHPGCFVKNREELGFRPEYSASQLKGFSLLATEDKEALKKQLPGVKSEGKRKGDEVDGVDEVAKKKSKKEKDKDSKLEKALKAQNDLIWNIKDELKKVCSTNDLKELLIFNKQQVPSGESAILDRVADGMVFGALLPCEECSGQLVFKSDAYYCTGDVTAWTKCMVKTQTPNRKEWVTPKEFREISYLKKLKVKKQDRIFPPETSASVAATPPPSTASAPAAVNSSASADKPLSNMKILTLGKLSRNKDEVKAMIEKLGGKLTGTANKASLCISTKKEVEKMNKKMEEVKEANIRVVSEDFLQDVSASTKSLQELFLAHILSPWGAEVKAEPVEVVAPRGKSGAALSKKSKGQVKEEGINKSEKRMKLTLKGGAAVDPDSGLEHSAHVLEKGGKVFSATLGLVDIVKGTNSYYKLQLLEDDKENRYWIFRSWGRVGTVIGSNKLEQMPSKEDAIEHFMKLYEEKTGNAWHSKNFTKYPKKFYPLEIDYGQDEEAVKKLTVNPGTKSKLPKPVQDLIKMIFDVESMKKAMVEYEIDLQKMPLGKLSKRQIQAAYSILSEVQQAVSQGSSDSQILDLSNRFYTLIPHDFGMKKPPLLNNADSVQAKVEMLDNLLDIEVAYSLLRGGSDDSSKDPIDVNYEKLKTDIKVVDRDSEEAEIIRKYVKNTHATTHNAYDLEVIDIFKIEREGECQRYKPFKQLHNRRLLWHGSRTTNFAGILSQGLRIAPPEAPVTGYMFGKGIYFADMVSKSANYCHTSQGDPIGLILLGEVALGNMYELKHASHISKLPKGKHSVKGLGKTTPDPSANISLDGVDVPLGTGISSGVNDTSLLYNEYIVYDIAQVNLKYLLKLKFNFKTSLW

As to `CCNC(=O)c1ccc(N2CCN(Cc3ccc4c5c(c(=O)[nH]c4c3)COC5)CC2)c(Cl)n1` [Example 6, 7-((4-(2-chloro-6-(ethylcarbamoyl)pyridin-3-yl)piperazin-1-yl)methyl)-3,5-dihydrofuro[3,4-c]quinolin-4(1H)-one], the IC50 in assay [1] was 1.86 nM; with MDA-MB-436 cells, 17.7 nM. Consider `CCNC(=O)c1ccc(N2CCN(Cc3ccc4c5c(c(=O)[nH]c4c3)COC5)CC2)c(C)n1` [Example 7, 7-((4-(2-methyl-6-(ethylcarbamoyl)pyridin-3-yl)piperazin-1-yl)methyl)-3,5-dihydrofuro[3,4-c]quinolin-4(1H)-one], for which the IC50 in assay [1] came to 1.9 nM; in the assay on MDA-MB-436 cells, 4.36 nM. With `CNC(=O)c1ccc(N2CCN(Cc3ccc4c5c(c(=O)[nH]c4c3)CCC5)CC2)c(Cl)n1` [Example 16, 7-((4-(2-chloro-6-(methylcarbamoyl)pyridin-3-yl)piperazin-1-yl)methyl)-1,2,3,5-tetrahydro-4H-cyclopenta[c]quinolin-4-one], the IC50 in assay [1] amounted to 1.99 nM; with MDA-MB-436 cells, 1.71 nM. As to `CNC(=O)c1ccc(N2CCN(Cc3ccc4c(c3)[nH]c(=O)c3nccn34)CC2)c(C)n1` [Example 25, 7-((4-(2-methyl-6-(methylcarbamoyl)pyridin-3-yl)piperazin-1-yl)methyl)imidazo[1,2-a]quinoxalin-4(5H)-one], the IC50 in assay [1] is 1.93 nM; with MDA-MB-436 cells, 44.9 nM. `CNC(=O)c1ccc(N2CCN(Cc3ccc4c(c3)[nH]c(=O)n3cncc43)CC2)c(C)n1` [Example 30, 8-((4-(2-methyl-6-(methylcarbamoyl)pyridin-3-yl)piperazin-1-yl)methyl)imidazo[1,5-c]quinazolin-5(6H)-one]: the half-maximal inhibitory concentration (IC50) in assay [1] came out at 1.54 nM; in assay [2], 2590 nM. In the case of `CNC(=O)c1ccc(N2CCN(Cc3cc(F)c4c(c3)[nH]c(=O)n3ccnc43)CC2)c(F)n1` [Example 53, 8-((4-(2-fluoro-6-(methylcarbamoyl)pyridin-3-yl)piperazin-1-yl)methyl)-10-fluoroimidazo[1,2-c]quinazolin-5(6H)-one], the IC50 in assay [1] was 2.34 nM; in assay [2], 1950 nM. On to `Cc1nc(C(=O)NC2CC2)ccc1N1CCN(Cc2cc(F)c3c4c(c(=O)[nH]c3c2)CCC4)CC1` [Example 81, 7-((4-(2-methyl-6-(cyclopropylcarbamoyl)pyridin-3-yl)piperazin-1-yl)methyl)-9-fluoro-1,2,3,5-tetrahydro-4H-cyclopenta[c]quinolin-4-one], for which the concentration for half-maximal inhibition (IC50) with MDA-MB-436 cells came out at 4.67 nM.

For `O=C(NC1CC1)c1ccc(N2CCN(Cc3cc(F)c4c5c(c(=O)[nH]c4c3)CCC5)CC2)c(F)n1` [Example 82, 7-((4-(2-fluoro-6-(cyclopropylcarbamoyl)pyridin-3-yl)piperazin-1-yl)methyl)-9-fluoro-1,2,3,5-tetrahydro-4H-cyclopenta[c]quinolin-4-one], in the assay on MDA-MB-436 cells, the IC50 worked out at 3.66 nM. As for `CNC(=O)c1ccc(N2CCN(Cc3ccc4c(c3)[nH]c(=O)c3cscc34)CC2)c(C)n1` [Example 83, 7-((4-(2-methyl-6-(methylcarbamoyl)pyridin-3-yl)piperazin-1-yl)methyl)thieno[3,4-c]quinolin-4(5H)-one], the figures for the IC50 in assay [1] and in assay [2] were 1.08 nM and 18.3 nM, respectively.

Regarding `CNC(=O)c1ccc(N2CCN(Cc3ccc4c(c3)[nH]c(=O)c3sccc34)CC2)c(C)n1` [Example 84, 7-((4-(2-methyl-6-(methylcarbamoyl)pyridin-3-yl)piperazin-1-yl)methyl)thieno[2,3-c]quinolin-4(5H)-one], the half-inhibitory concentration (IC50) in assay [1] worked out at 0.77 nM; in assay [2] it was 10.1 nM. With `CNC(=O)c1ccc(N2CCN(Cc3ccc4c(c3)[nH]c(=O)c3ccsc34)CC2)c(C)n1` [Example 85, 7-((4-(2-methyl-6-(methylcarbamoyl)pyridin-3-yl)piperazin-1-yl)methyl)thieno[3,2-c]quinolin-4(5H)-one], the results for the IC50 in assay [1] and in assay [2] were 1.52 nM and 78 nM, respectively. Taken in the same sequence, the figures for `CNC(=O)c1ccc(N2CCN(Cc3cc(F)c4c(c3)[nH]c(=O)c3cscc34)CC2)c(C)n1` [Example 86, 7-((4-(2-methyl-6-(methylcarbamoyl)pyridin-3-yl)piperazin-1-yl)methyl)-9-fluorothieno[3,4-c]quinolin-4(5H)-one] were 0.66 nM and 13.3 nM. In the case of `[2H]C([2H])([2H])NC(=O)c1ccc(N2CCN(Cc3cc(F)c4c(c3)[nH]c(=O)c3ccnn34)CC2)c(C)n1` [Example 90, 7-((4-(2-methyl-6-((methyl-d3)-carbamoyl)pyridin-3-yl)piperazin-1-yl)methyl)-9-fluoropyrazolo[1,5-a]quinoxalin-4(5H)-one], in the assay with MDA-MB-436 cells, inhibition was half-maximal at 2.44 nM (IC50). As for `CNC(=O)c1ccc(N2CCN(Cc3cc4[nH]c(=O)c5ccnn5c4cc3F)CC2)c(C)n1` [Example 93, 7-((4-(2-methyl-6-(methylcarbamoyl)pyridin-3-yl)piperazin-1-yl)methyl)-8-fluoropyrazolo[1,5-a]quinoxalin-4(5H)-one], the IC50 with MDA-MB-436 cells turned out to be 5.68 nM. The same measure, in the same setting: in the case of `CNC(=O)c1ccc(N2CCN(Cc3cc(F)c4c(c3)[nH]c(=O)n3ccnc43)CC2)c(C)n1` [Example 96, 8-((4-(2-methyl-6-(methylcarbamoyl)pyridin-3-yl)piperazin-1-yl)methyl)-10-fluoroimidazo[1,2-c]quinazolin-5(6H)-one] it was 1.93 nM. Same read-out and setting: with `CNC(=O)c1ccc(N2CCN(Cc3cc(F)c4c(c3)[nH]c(=O)c3ccnn34)CC2)cn1` [Example 97, 7-((4-(6-(methylcarbamoyl)pyridin-3-yl)piperazin-1-yl)methyl)-9-fluoropyrazolo[1,5-a]quinoxalin-4(5H)-one] the figure was 111 nM; with `CNC(=O)c1ccc(N2CCN(Cc3ccc4c(c3)[nH]c(=O)c3c(Cl)cnn34)CC2)c(F)n1` [Example 99, 7-((4-(2-fluoro-6-(methylcarbamoyl)pyridin-3-yl)piperazin-1-yl)methyl)-3-chloropyrazolo[1,5-a]quinoxalin-4(5H)-one], 0.54 nM. As for `CNC(=O)c1ccc(N2CCN(Cc3ccc4c(c3)[nH]c(=O)c3occc34)CC2)c(C)n1` [Example 104, 7-((4-(2-methyl-6-(methylcarbamoyl)pyridin-3-yl)piperazin-1-yl)methyl)furo[2,3-c]quinolin-4(5H)-one], in assay [1], the half-inhibitory concentration (IC50) worked out at 1.42 nM. For the compound `CNC(=O)c1ccc(N2CCN(Cc3ccc4c(c3)[nH]c(=O)c3cnn(C)c34)CC2)c(C)n1` [Example 105, 7-((4-(2-methyl-6-(methylcarbamoyl)pyridin-3-yl)piperazin-1-yl)methyl)-1-methyl-1,5-dihydro-4H-pyrazolo[4,3-c]quinolin-4-one], the 50% inhibitory concentration (IC50) in assay [2] came to 910 nM. `CNC(=O)c1ccc(N2CCN(Cc3cc(F)c4c(c3)[nH]c(=O)c3occc34)CC2)c(F)n1` [Example 108, 7-((4-(2-fluoro-6-(methylcarbamoyl)pyridin-3-yl)piperazin-1-yl)methyl)-9-fluoro-furo[2,3-c]quinolin-4(5H)-one]: the IC50 in assay [1] is 0.66 nM; in assay [2], 353 nM.

In the case of `CCNC(=O)c1ccc(N2CCN(Cc3ccc4c([nH]c(=O)c5ccnn54)c3F)CC2)c(F)n1` [Example 110, 7-((4-(2-fluoro-6-(ethylcarbamoyl)pyridin-3-yl)piperazin-1-yl)methyl)-6-fluoropyrazolo[1,5-a]quinoxalin-4(5H)-one], the values for the IC50 in assay [1] and in assay [2] were 1.95 nM and 965 nM, respectively. The like results for `O=C(NC1CC1)c1ccc(N2CCN(Cc3ccc4c([nH]c(=O)c5ccnn54)c3F)CC2)c(F)n1` [Example 111, 7-((4-(2-fluoro-6-(cyclopropylcarbamoyl)pyridin-3-yl)piperazin-1-yl)methyl)-6-fluoropyrazolo[1,5-a]quinoxalin-4(5H)-one] were, in that order, 1.27 nM and 455 nM. As for `CNC(=O)c1ccc(N2CCN(Cc3ccc4c([nH]c(=O)c5cc(Cl)nn54)c3F)CC2)c(F)n1` [Example 112, 7-((4-(2-fluoro-6-(methylcarbamoyl)pyridin-3-yl)piperazin-1-yl)methyl)-6-fluoro-2-chloropyrazolo[1,5-a]quinoxalin-4(5H)-one], the concentration for half-maximal inhibition (IC50) in assay [1] is 0.57 nM; in assay [2] it was 223 nM. As to `Cc1nc(C(=O)O)ccc1N1CCN(Cc2cc(F)c3c(c2)[nH]c(=O)c2ccnn23)CC1` [Example 116, 7-((4-(2-methyl-6-carboxypyridin-3-yl)piperazin-1-yl)methyl)-9-fluoropyrazolo[1,5-a]quinoxalin-4(5H)-one], the IC50 with MDA-MB-436 cells is > 100 nM. The same measure, in the same setting: in the case of `CNC(=O)c1ccc(N2CCN(Cc3ccc4c(c3)[nH]c(=O)n3nccc43)CC2)c(C)n1` [Example 118, 8-((4-(2-methyl-6-(methylcarbamoyl)pyridin-3-yl)piperazin-1-yl)methyl)pyrazolo[1,5-c]quinazolin-5(6H)-one] it was 10.7 nM.

As to `CNC(=O)c1ccc(N2CCN(Cc3cc(F)c4c(c3)[nH]c(=O)n3ccnc43)CC2)c(F)n1` [Example 120], the half-maximal inhibitory concentration (IC50) in assay [2] was found to be 1950 nM. With `CNC(=O)c1ccc(N2CCN(Cc3ccc4c(c3)[nH]c(=O)c3c(C)c(C)nn34)CC2)c(F)n1` [Example 125, 7-((4-(2-fluoro-6-(methylcarbamoyl)pyridin-3-yl)piperazin-1-yl)methyl)-2,3-dimethylpyrazolo[1,5-a]quinoxalin-4(5H)-one], the IC50 in assay [1] is 1.05 nM; in assay [2] it was 3.7 nM. Taken in the same sequence, the figures for `CNC(=O)c1ccc(N2CCN(Cc3cc(F)c4c(c3)[nH]c(=O)c3c(Cl)cnn34)CC2)c(C)n1` [Example 127, 7-((4-(2-methyl-6-(methylcarbamoyl)pyridin-3-yl)piperazin-1-yl)methyl)-3-chloro-9-fluoropyrazolo[1,5-a]quinoxalin-4(5H)-one] were 0.85 nM and 83 nM. The like results for `CNC(=O)c1ccc(N2CCN(Cc3ccc4c([nH]c(=O)c5ccnn54)c3C)CC2)c(C)n1` [Example 129, 7-((4-(2-methyl-6-(methylcarbamoyl)pyridin-3-yl)piperazin-1-yl)methyl)-6-methylpyrazolo[1,5-a]quinoxalin-4(5H)-one] were, in that order, 1.48 nM and 369 nM.

Values taken from patent US20240368169A1 (priority 2021, published 2024).
